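Five concentrations, 48 hours, 96-well plates. GI50 = concentration required for 50% inhibition of growth.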 Active and inactive are the calls of the source. Cut-off read from the data, not from the text of the source: active = GI50 up to about 1.1 µM and inactive = higher.
Key:
Experiment in all cases: NCI tumour cell line growth inhibition, 48 h
CAKI-1 = system: CAKI-1
SNB-75 = system: SNB-75
KM-20L2 = system: KM-20L2
HCT-116 = system: HCT-116
ACHN = system: ACHN
A549 = system: A549
786-0 = system: 786-0
DLD-1 = system: DLD-1
EKVX = system: EKVX
UACC-257 = system: UACC-257
NCI-H23 = system: NCI-H23
IGROV-1 = system: IGROV-1
HL-60 = system: HL-60
CCRF-CEM = system: CCRF-CEM
COLO 205 = system: COLO 205
DU-145 = system: DU-145
MCF7 = system: MCF7
PC-3 = system: PC-3
BT-549 = system: BT-549
MDA-N = system: MDA-N

Measured: GI50

N#Cc1ccc(Sc2ccccc2)cc1C#N
inactive: CAKI-1 > 100 µM | SNB-75 21.7 µM | KM-20L2 75.3 µM | HCT-116 20.7 µM | ACHN > 100 µM | A549 > 100 µM | 786-0 28.1 µM | DLD-1 34 µM | EKVX > 100 µM | UACC-257 > 100 µM | NCI-H23 50.5 µM | IGROV-1 > 100 µM | HL-60 > 100 µM | CCRF-CEM 18.1 µM | COLO 205 33.2 µM

COc1cc(=O)oc(/C=C/CO)c1C
inactive: CAKI-1 > 100 µM | SNB-75 > 100 µM | KM-20L2 > 100 µM | HCT-116 > 100 µM | ACHN > 100 µM | A549 > 100 µM | 786-0 > 100 µM | DLD-1 > 100 µM | EKVX > 100 µM | UACC-257 > 100 µM | NCI-H23 > 100 µM | IGROV-1 > 100 µM | HL-60 > 100 µM | CCRF-CEM > 100 µM | COLO 205 > 100 µM

OC(c1ccccc1)(c1ccccc1)c1ccncc1
inactive: CAKI-1 > 100 µM | SNB-75 36.6 µM | KM-20L2 > 100 µM | HCT-116 > 100 µM | ACHN > 100 µM | A549 > 100 µM | 786-0 66.1 µM | DLD-1 > 100 µM | EKVX > 100 µM | UACC-257 > 100 µM | NCI-H23 > 100 µM | IGROV-1 > 100 µM | HL-60 > 100 µM | CCRF-CEM > 100 µM | COLO 205 > 100 µM

C/C(=N\NC(C)(C)C)c1sc(-c2nc(C)c(/C(C)=N/NC(C)(C)C)s2)nc1C
inactive: CAKI-1 > 100 µM | SNB-75 8.32 µM | KM-20L2 > 100 µM | HCT-116 > 100 µM | ACHN > 100 µM | A549 > 100 µM | 786-0 > 100 µM | DLD-1 > 100 µM | EKVX > 100 µM | UACC-257 > 100 µM | NCI-H23 > 100 µM | IGROV-1 > 100 µM | HL-60 > 100 µM | CCRF-CEM > 100 µM | COLO 205 > 100 µM

Cc1cc(C)c(/C=N/NS(=O)(=O)c2ccccc2)c(C)c1
inactive: CAKI-1 76.6 µM | SNB-75 > 100 µM | KM-20L2 > 100 µM | HCT-116 > 100 µM | ACHN > 100 µM | A549 > 100 µM | 786-0 > 100 µM | DLD-1 91.8 µM | EKVX 62.7 µM | UACC-257 68.7 µM | NCI-H23 54.3 µM | IGROV-1 > 100 µM | HL-60 91.6 µM | CCRF-CEM 62.8 µM | COLO 205 > 100 µM

C1=CC=C2NCCCCCC/N=C3\C=CC=CC=C3NCCc3cccc(c3)CC/N=C/2C=C1
inactive: CAKI-1 33.3 µM | SNB-75 21.3 µM | KM-20L2 4.81 µM | HCT-116 6.27 µM | ACHN 33 µM | A549 35.2 µM | 786-0 10 µM | DLD-1 36.6 µM | EKVX 37 µM | UACC-257 22.8 µM | NCI-H23 13.1 µM | IGROV-1 16.9 µM | HL-60 5.43 µM | CCRF-CEM 15.9 µM | COLO 205 14.3 µM

COc1ccc(C)cc(O)c1=O
inactive: CAKI-1 28.2 µM | SNB-75 > 100 µM | KM-20L2 40.2 µM | HCT-116 33.7 µM | ACHN 22.8 µM | A549 > 100 µM | 786-0 10.5 µM | DLD-1 35.1 µM | EKVX 38.8 µM | UACC-257 33.2 µM | NCI-H23 40.1 µM | IGROV-1 39.9 µM | HL-60 19.1 µM | CCRF-CEM 10.7 µM | COLO 205 30.8 µM

O=C1OC(CC(=O)c2ccc(Cl)cc2Cl)C(Cl)=C1Cl (stereo not given)
inactive: CAKI-1 30.8 µM | SNB-75 > 43.7 µM | KM-20L2 21.1 µM | HCT-116 18.2 µM | ACHN > 41.1 µM | A549 > 100 µM | 786-0 21.9 µM | DLD-1 22.4 µM | EKVX > 54.7 µM | UACC-257 > 100 µM | NCI-H23 28.9 µM | IGROV-1 > 41 µM | HL-60 26.7 µM | CCRF-CEM 25.7 µM | COLO 205 20.8 µM

C/C(=N/N)c1sc(-c2nc(C)c(/C(C)=N\N)s2)nc1C
inactive: CAKI-1 > 100 µM | SNB-75 > 100 µM | KM-20L2 > 100 µM | HCT-116 > 100 µM | ACHN > 100 µM | A549 > 100 µM | 786-0 > 55.6 µM | DLD-1 > 67.9 µM | EKVX > 100 µM | UACC-257 > 100 µM | NCI-H23 > 100 µM | IGROV-1 > 100 µM | HL-60 30.1 µM | CCRF-CEM 27.2 µM | COLO 205 > 46.1 µM

C[C@]12C=CC(=O)C=C1CC[C@@H]1[C@@H]2CC[C@]2(C)OC(=O)CC[C@@H]12 [TESTOLACTONE]
inactive: CAKI-1 372 µM | DU-145 > 343 µM | SNB-75 292 µM | KM-20L2 456 µM | MCF7 457 µM | HCT-116 > 466 µM | ACHN 453 µM | A549 447 µM | 786-0 > 500 µM | DLD-1 > 500 µM | PC-3 > 500 µM | EKVX 318 µM | UACC-257 389 µM | BT-549 237 µM | NCI-H23 > 491 µM | IGROV-1 453 µM | HL-60 310 µM | MDA-N > 500 µM | CCRF-CEM 431 µM | COLO 205 480 µM

— ChEMBL document CHEMBL1201862, “PubChem BioAssay data set” (2004)
